Test results from patent US10919858B2, “Thioacetate compounds, compositions and methods of use” (ARDEA BIOSCIENCES, INC., priority 2010, dated 2021).

molecular target: URAT1 (Homo sapiens (Human), UniProt Q96S37); assay: URAT1-model assay, 14C-uric acid transport in HEK293/URAT1-model cells; assay type: cell-based; settings: 14C-uric acid 125 μM, 10 minutes at room temperature, read-out: URAT1 EC50 Activity Ranking
Method: HEK293 human embryonic kidney cells (ATCC #CRL-1573) were propagated in EMEM tissue culture medium as described by ATCC in an atmosphere of 5% C02 and 95% air. Transfections of HEK293 cells with a model URAT1 construct was performed using L2000 transfection reagent (Invitrogen) as described by the manufacturer. After 24 h the transfected cells were split into 10 cm tissue culture plates and grown for 1 day after which the medium was replaced with fresh growth medium containing G418 (Gibco) at 0.5 mg/ml final concentration. Drug-resistant colonies were selected after approximately 8 days and then tested for ^14C-uric acid transport activity. The HEK293/URAT1-model cells are plated on Poly-D-Lysine Coated 96-well Plates at a density of 125,000 cells per well.
Cells were grown overnight (20-26 hours) at 37° C. in an incubator. Plates were allowed to come to room temperature and media was washed out with one wash of 250 μl of Wash Buffer (125 mM Na Gluconate, 10 mM Hepes ph 7.3). Compound or vehicle is added in assay buffer with ^14C-uric acid for a final concentration of 125 μM Uric Acid with a specific activity of 54 mCi/mmol. Assay Buffer is 125 mM Sodium Gluconate, 4.8 mM Potassium Gluconate, 1.2 mM Potassium phosphate, monobasic, 1.2 mM magnesium sulfate, 1.3 mM Ca Gluconate, 5.6 mM Glucose, 25 mM HEPES, pH 7.3. Plates were incubated at room temperature for 10 minutes then washed 3 times with 50 μl Wash Buffer and 3 times with 250 μl Wash Buffer. Microscint 20 Scintillation Fluid was added and plates were incubated overnight at room temperature to equilibrate. Plates are then read on the TopCount Plate Reader and an EC50 value generated. (See Enomoto et al, Nature, 2002, 417, 447-451 and Anzai et al, J. Biol. Chem., 2004, 279, 45942-45950.)

Chain of URAT1 (Q96S37 whole entry, species assumed): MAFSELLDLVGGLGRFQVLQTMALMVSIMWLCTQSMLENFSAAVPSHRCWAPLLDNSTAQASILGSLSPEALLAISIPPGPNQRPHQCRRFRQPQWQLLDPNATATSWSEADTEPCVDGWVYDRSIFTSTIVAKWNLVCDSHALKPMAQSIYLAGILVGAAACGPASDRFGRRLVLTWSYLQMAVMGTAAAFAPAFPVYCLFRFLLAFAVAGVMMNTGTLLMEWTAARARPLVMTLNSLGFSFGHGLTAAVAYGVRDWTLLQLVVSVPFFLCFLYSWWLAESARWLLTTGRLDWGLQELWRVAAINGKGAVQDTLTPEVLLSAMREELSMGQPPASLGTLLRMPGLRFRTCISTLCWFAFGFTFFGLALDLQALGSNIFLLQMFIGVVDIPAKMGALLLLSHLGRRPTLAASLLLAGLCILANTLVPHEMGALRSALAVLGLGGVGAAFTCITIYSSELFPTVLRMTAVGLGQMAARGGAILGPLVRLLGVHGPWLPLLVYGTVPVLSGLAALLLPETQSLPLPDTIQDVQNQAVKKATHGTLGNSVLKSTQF

EC50 [nM] | Structure (SMILES)
1 to 50 | CC(C)(Sc1ccncc1-c1ccc(O)cc1)C(=O)O [Example 2AAA]
50 to 500 | CC(C)(Sc1ccncc1-c1ccc(C#N)c(F)c1)C(=O)O [Example 2BBB]
50 to 500 | Cc1ccc(-c2cnccc2SC(C)(C)C(=O)O)cc1 [Example 2CCC]
50 to 500 | CC(C)(Sc1ccncc1-c1ccc(Cl)c(C(F)(F)F)c1)C(=O)O [Example 2EE]
50 to 500 | CC(C)(Sc1ccncc1-c1ccc(S)cc1)C(=O)O [Example 2GGG]
50 to 500 | CC(C)(Sc1ccncc1-c1ccc(F)cc1)C(=O)O [Example 2GG]
1 to 50 | CC(C)(Sc1ccncc1-c1ccc(Cl)cc1)C(=O)O [Example 2O]
1 to 50 | CC(C)(Sc1ccncc1-c1ccncc1)C(=O)O [Example 2PP]
1 to 50 | CC(C)(Sc1ccncc1-c1ccc(Cl)cc1)C(=O)O [Example 2P]
50 to 500 | CC(C)(Sc1ccncc1-c1ccc(Cl)c(Cl)c1)C(=O)O [Example 2S]
50 to 500 | CC(C)(Sc1ccncc1-c1cccc(C#N)c1)C(=O)O [Example 2TT]
50 to 500 | COc1ccc(-c2cnccc2SC(C)(C)C(=O)O)cn1 [Example 2T]
1 to 50 | CC(C)(Sc1ccncc1-c1ccc(Br)cc1)C(=O)O [Example 2UU]
50 to 500 | CC(C)(Sc1ccncc1-c1ccc(F)c(F)c1)C(=O)O [Example 2W]
50 to 500 | COc1cc(-c2cnccc2SC(C)(C)C(=O)O)ccc1C#N [Example 2ZZ]

Second part, the molecule before the results:

Structure (SMILES) | EC50 [nM]
CC(C)(Sc1cccnc1-c1ccc(C#N)cc1)C(=O)O [Example 1A, 2-(2-(4-Cyanophenyl)pyridin-3-ylthio)-2-methylpropanoic acid] | 50 to 500
CC(C)(Sc1ccncc1-c1ccc(C#N)cc1)C(=O)O [Example 2A, 2-(3-(4-Cyanophenyl)pyridin-4-ylthio)-2-methylpropanoic acid] | 1 to 50
CC(C)(Sc1ccncc1-c1ccc(Br)c2ccccc12)C(=O)O [Example 2AA] | 50 to 500
Cc1ccc(-c2cnccc2SC(C)(C)C(=O)O)c2ccccc12 [Example 2BB] | 50 to 500
CC(C)(Sc1ccncc1-c1ccc(S(N)(=O)=O)cc1)C(=O)O [Example 2CC] | 50 to 500
CC(C)(Sc1ccncc1-c1ccc(C#N)c2ccccc12)C(=O)O [Example 2C] | 1 to 50
CC(=O)Nc1ccc(-c2cnccc2SC(C)(C)C(=O)O)cc1 [Example 2DDD] | 50 to 500
CC(C)(Sc1ccncc1-c1cccc2ccccc12)C(=O)O [Example 2DD] | 50 to 500
CC(C)(Sc1ccncc1-c1ccc(S(=O)(=O)NC2CC2)cc1)C(=O)O [Example 2D] | 50 to 500
CC(C)(Sc1ccncc1-c1ccc(S(C)(=O)=O)cc1)C(=O)O [Example 2EEE] | 50 to 500
CC(C)(Sc1ccncc1-c1ccc(C#N)c(Cl)c1)C(=O)O [Example 2FFF] | 1 to 50
CC(C)(Sc1ccncc1-c1cnc2ccccc2c1)C(=O)O [Example 2F] | 50 to 500
CC(C)(Sc1ccncc1-c1cccc2ncccc12)C(=O)O [Example 2H] | 50 to 500
CC(C)(Sc1ccncc1-c1ccc(C#N)cc1F)C(=O)O [Example 2III] | 1 to 50
CC(C)(Sc1ccncc1-c1ccnc2ccccc12)C(=O)O [Example 2II] | 50 to 500
CC(C)(Sc1ccncc1-c1ccc(C(N)=O)cc1F)C(=O)O [Example 2JJJ] | 50 to 500
CC(C)(Sc1ccncc1-c1ccc(CO)cc1)C(=O)O [Example 2JJ] | 1 to 50

Structure (SMILES) | EC50 [nM]
N#Cc1ccc(-c2cnccc2SC2(C(=O)O)CCC2)c2ccccc12 [Example 2J] | 1 to 50
CC(C)(Sc1ccncc1-c1ccc(C(N)=O)cc1)C(=O)O [Example 2KK] | 50 to 500
CCc1ccc(-c2cnccc2SC(C)(C)C(=O)O)cc1 [Example 2K] | 50 to 500
COc1cncc(-c2cnccc2SC(C)(C)C(=O)O)c1 [Example 2MM] | 50 to 500
Cc1cc(C#N)ccc1-c1cnccc1SC(C)(C)C(=O)O [Example 2NN] | 1 to 50
CC(C)(Sc1ccncc1-c1ccc(C(F)(F)F)cc1)C(=O)O [Example 2N] | 50 to 500
CSc1ccc(-c2cnccc2SC(C)(C)C(=O)O)cc1 [Example 2Q] | 50 to 500
CC(C)(Sc1ccncc1-c1cncc2ccccc12)C(=O)O [Example 2U] | 50 to 500
Cc1cc(C(N)=O)ccc1-c1cnccc1SC(C)(C)C(=O)O [Example 2WW] | 50 to 500
COc1ccc(-c2cnccc2SC(C)(C)C(=O)O)cc1 [Example 2XX] | 50 to 500
CC(C)(Sc1ccncc1-c1ccc(F)c2ccccc12)C(=O)O [Example 2X] | 1 to 50
CC(C)(Sc1cnccc1-c1ccc(C#N)cc1)C(=O)O [Example 3A, 2-(4-(4-Cyanophenyl)pyridin-3-ylthio)-2-methylpropanoic acid] | 500 to 10000
N#Cc1ccc(-c2cccnc2SC2(C(=O)O)CCC2)c2ccccc12 [Example 4C] | 50 to 500
N#Cc1ccc(-c2nccnc2SCC(=O)O)c2ccccc12 [Example 5A, 2-(3-(4-Cyanonaphthalen-1-yl)pyrazin-2-ylthio)acetic acid] | 500 to 10000
N#Cc1ccc(-c2cncnc2SCC(=O)O)c2ccccc12 [Example 6A, 2-(5-(4-Cyanonaphthalen-1-yl)pyrimidin-4-ylthio)acetic acid] | 500 to 10000
N#Cc1ccc(-c2ncncc2SCC(=O)O)c2ccccc12 [Example 7A, 2-(4-(4-Cyanonaphthalen-1-yl)pyrimidin-5-ylthio)acetic acid] | 500 to 10000
